Like-named read-outs stand apart in the source and are kept apart here.
Assays:
[1] = system: porcine retinal arteries; assay: small vessel myography of wall tension in isolated retinal artery segments pre-contracted with U-46619; assay type: cell-based; conditions: for vasodilation in a single representative experiment, percent of maximum contraction / mean dilation as percentage of the maximum contraction induced by U-46619: single dose of 10^−3 M; for vasodilation in a single representative experiment, percent of maximum contraction: pre-contracted with 10^−6 M U-46619; for mean dilation as percentage of the maximum contraction induced by U-46619: mean ± SEM; for wall tension reached after dilation: final level (slower phase for compound 4); for EC50: Sus scrofa, best fit to concentration-response curves, arteries pre-contracted with 10^−6 M U-46619, read-out: mean EC50 of vasodilation; for peak wall tension after U-46619: 10^−6 M
[2] = target: T1, hCA IV (Homo sapiens, UniProt P22748); assay: stopped flow CO2 hydrase assay, hCA IV; assay type: biochemical; conditions: mean from 3 assays, errors ± 5%–10%
T1 construct: made in house

[3] = target: T2, hCA XII (Homo sapiens, UniProt O43570); assay: stopped flow CO2 hydrase assay, hCA XII; assay type: biochemical
T2 construct: made in house

[4] = target: T3, hCA I (Homo sapiens, UniProt P00915); conditions: stopped flow; cited from earlier work
T3 construct: made in house

[5] = target: T4, hCA II (Homo sapiens, UniProt P00918); set-up: method as in PMID 16996620; conditions: stopped flow; cited from earlier work
T4 construct: made in house

[6] = target: T3, hCA I; assay: stopped flow CO2 hydrase assay, hCA I; assay type: biochemical; conditions: mean from 3 assays, errors ± 5%–10%
[7] = target: T4, hCA II; assay: stopped flow CO2 hydrase assay, hCA II; assay type: biochemical; conditions: mean from 3 assays, errors ± 5%–10%
[8] = target: T5, hCA IX (Homo sapiens, UniProt Q16790); assay: stopped flow CO2 hydrase assay, hCA IX; assay type: biochemical; conditions: mean from 3 assays, errors ± 5%–10%
T5 construct: made in house

T3 sequence (P00915 whole entry): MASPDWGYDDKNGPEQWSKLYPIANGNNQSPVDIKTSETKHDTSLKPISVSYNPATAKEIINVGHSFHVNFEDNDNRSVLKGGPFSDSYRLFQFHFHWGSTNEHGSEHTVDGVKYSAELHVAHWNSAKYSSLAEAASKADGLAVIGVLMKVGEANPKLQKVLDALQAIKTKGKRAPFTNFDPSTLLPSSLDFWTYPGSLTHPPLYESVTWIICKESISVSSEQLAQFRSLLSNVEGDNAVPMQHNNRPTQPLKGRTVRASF
T2 sequence (O43570 25-354): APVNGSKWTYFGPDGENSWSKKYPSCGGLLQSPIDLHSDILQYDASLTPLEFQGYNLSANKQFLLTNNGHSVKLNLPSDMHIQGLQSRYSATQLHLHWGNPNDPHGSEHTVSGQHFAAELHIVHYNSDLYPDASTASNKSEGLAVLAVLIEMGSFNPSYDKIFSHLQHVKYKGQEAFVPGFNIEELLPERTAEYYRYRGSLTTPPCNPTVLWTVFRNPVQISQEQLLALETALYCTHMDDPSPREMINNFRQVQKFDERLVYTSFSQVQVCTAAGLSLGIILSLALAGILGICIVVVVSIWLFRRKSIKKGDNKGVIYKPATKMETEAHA
T1 sequence (P22748 19-312): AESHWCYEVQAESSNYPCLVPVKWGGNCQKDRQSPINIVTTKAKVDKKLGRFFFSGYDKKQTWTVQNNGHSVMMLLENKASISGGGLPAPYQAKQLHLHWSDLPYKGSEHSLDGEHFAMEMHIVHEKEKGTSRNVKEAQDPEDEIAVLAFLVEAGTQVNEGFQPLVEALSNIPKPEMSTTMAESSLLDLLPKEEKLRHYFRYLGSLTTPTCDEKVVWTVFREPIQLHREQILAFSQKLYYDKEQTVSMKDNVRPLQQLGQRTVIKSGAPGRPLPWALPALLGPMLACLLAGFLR

## CCN[C@H]1C[C@H](C)S(=O)(=O)c2sc(S(N)(=O)=O)cc21 [Compound 2, Dorzolamide, reference compound]
[1]; one vessel
  vasodilation in a single representative experiment, percent of maximum contraction: 33%
[1]
  mean dilation as percentage of the maximum contraction induced by U-46619: 69.7% ± 5.7%

## C#CCOc1ccc2ccc(=O)oc2c1 [Compound 5]
[2]
  Ki: 0.0764 µM
[3]; ratio of KI values versus compound 4
  times less effective than 4 against hCA XII: 12.9 times
[1]; 10^−3 M, one vessel
  wall tension reached after dilation: 0.77 mN/mm
[1]
  EC50: 4.12 µM
  mean dilation as percentage of the maximum contraction induced by U-46619: 116.5% ± 1.7%
[1]; one vessel
  vasodilation in a single representative experiment, percent of maximum contraction: 140%
[4]
  Ki: > 10 µM
[5]
  Ki: > 10 µM

## C#CCN(CC#C)CCc1ccc(S(N)(=O)=O)cc1 [Compound 3]
[6]
  Ki: 4.01 µM
[7]
  Ki: 0.0058 µM
[8]
  Ki: 0.0557 µM
[1]
  EC50: 188 µM
  mean dilation as percentage of the maximum contraction induced by U-46619: 102.2% ± 3.7%
[1]; one vessel
  vasodilation in a single representative experiment, percent of maximum contraction: 91%

## CCCCC[C@H](O)/C=C/[C@@H]1[C@@H](C/C=C\CCCC(=O)O)[C@H]2CO[C@@H]1C2 [Compound U-46619, 9,11-dideoxy-9 α,11α methanoepoxy prostaglandin F2α, reference compound]
[1]; Figure 2A, baseline 0.4 mN/mm
  peak wall tension after U-46619: about 1.75 mN/mm
[1]; Figure 3A, baseline 0.6 mN/mm
  peak wall tension after U-46619: 2.4 mN/mm
[1]; Figure 3B, baseline about 0.38 mN/mm
  peak wall tension after U-46619: 1.63 mN/mm
[1]; Figure 4A, baseline 1.54 mN/mm
  peak wall tension after U-46619: 3.38 mN/mm
[1]; Figure 4B, baseline 0.95 mN/mm
  peak wall tension after U-46619: 2.21 mN/mm

## C#CCNc1ccc2c(C)cc(=O)oc2c1 [Compound 6]
[6]
  Ki: > 10 µM
[7]
  Ki: > 10 µM
[8]
  Ki: 0.474 µM
[3]; mean from 3 assays, errors ± 5%–10%
  Ki: 0.0445 µM
[1]
  EC50: 101 µM
  mean dilation as percentage of the maximum contraction induced by U-46619: 99.5% ± 1.2%
[1]; one vessel
  vasodilation in a single representative experiment, percent of maximum contraction: 96.8%

## C#CCOc1ccc2oc(=O)ccc2c1 [Compound 4]
[1]; 10^−3 M, one vessel, peak constriction 1.63 mN/mm (Figure 3B)
  wall tension after initial very fast phase of dilation: about 0.66 mN/mm
[1]; 10^−3 M, one vessel
  wall tension reached after dilation: about 0.36 mN/mm
[1]
  EC50: 134 µM
  mean dilation as percentage of the maximum contraction induced by U-46619: 98.8% ± 6.1%
[1]; one vessel
  vasodilation in a single representative experiment, percent of maximum contraction: 101%

## NS(=O)(=O)c1nnc(NS(=O)(=O)c2ccccc2)s1 [Compound 1, Benzolamide, reference compound]
[2]
  Ki: 0.012 µM
[1]; 10^−3 M BZA added on top of 10^−3 M DZA, one vessel (Figure 2B)
  final dilation when added after DZA dilation had reached a steady level: 100%
[1]
  EC50: 84.3 µM
  mean dilation as percentage of the maximum contraction induced by U-46619: 78.4% ± 8.5%
[1]; one vessel
  vasodilation in a single representative experiment, percent of maximum contraction: almost complete inhibition

— article PMC6387369, “Carbonic Anhydrase Inhibitors of Different Structures Dilate Pre-Contracted Porcine Retinal Arteries” (International Journal of Molecular Sciences, 2019)
